The values that follow come from US6602487B1, “Methods and tests for producing and for inhibiting coronary artery vasospasms” (Dimera Incorporated, priority 1997, dated 2003).

“Also recorded” adds a separate entry of the source.

Test [1] relates to coronary arteries. The test can be described thus: Mechanical injury coronary vasospasm protocol (Protocol 2). In kind it is in vivo, rhesus monkeys (Macaca mulatta). The settings on record: serotonin 67 μmol/liter IC; U46619 67 nmol/liter or 1 nmol/liter; ET1 ≦10 nmol/liter; AII ≦10 μmol/liter. The source says:
A separate mechanical injury, Protocol 2, was used in three additional monkeys (one male, two ovx). The injury step of Protocol 2, was deliberate mechanical stretching of the LAD or left main coronary artery with a 5F catheter.
In Protocol 2, steps 1-5 were the same as in Protocol 1. The remaining steps were as follows:
7. IC injection of angiotensin II (sequential doses to 10 μmol/liter);
8. Injury by stretching the coronary artery with a 5F catheter;
9. IC injection of serotonin (sequential doses to 1 mmol/liter);
(§1) 10. IC injection 15 minutes later with 1 or 10 μmol/liter nitrendipine or Ro 40-5967 (mibefradil);
11. IC injection of […] (sequential doses to 10 μmol/liter); and
(§2) 12. IC injection 15 minutes later with 1 or 10 μmol/liter nitrendipine or Ro 40-5967.
Putative coronary vasospasm stimuli were judged primarily by actions on large coronary artery diameters, analyzed as diameter of the most proximal focus of vasospasm at end-diastole from video-taped images recorded at 30 frames/s. We used the image analysis program Image Pro to measure the diameters from single frames acquired with an Imagraph frame grabber in a Pentium computer. We used the 3F catheter tip radio-opaque marker ring (1.0 mm) for calibration and determined minimal and maximal diameters just distal to the constriction. All responses to interventions were also X-ray imaged immediately (15 to 30 s after injection) and at exactly 3 minutes (and 15 minutes if there was vasospasm) after injection.

Test [2] has as its system coronary arteries.
The subject of test [3] is coronary arteries. Description: animal or person. The conditions noted are these: Macaca mulatta, read-out: EC50 (-log mol/liter) (converted).
In test [4] the test system is coronary arteries. Description: Relief of coronary vasospasm by intracoronary Ca2+ antagonist. In kind it is in vivo, rhesus monkeys (Macaca mulatta). Here is the method:
The eighth to tenth steps, which were 1 ml injections of 100 μmol/liter serotonin and 1 μmol/liter U46619 combined, were the critical steps. These concentrations of serotonin and U46619, injected in three repeated challenges, provoked drug-induced vasospasm. Sensitivity was determined by whether the vasospasm response occurred to the first, second or third stimulus, allowing at least a 7-minute delay from one injection to the next. For three of these seven ovx monkeys, 1-2 nM endothelin-1 (alone and plus serotonin) and 1 μmol/liter angiotensin-II (alone and plus serotonin) steps were administered between steps 10 and 11 (as additional challenges), but these extra steps never produced vasospasm. […] Step 12 was a Ca^2+ antagonist, either nitrendipine or mibefradil, as a vasodilator to relieve the vasospasm or cardiogenic shock that was the end point.
as §1, §2
To allow monkeys to recover and prevent death due to cardiogenic shock, we followed combined serotonin and U46619 stimulation with an IC Ca^2+ antagonist, either nitrendipine or mibefradil, at the end of the 15 minute vasospasm, except for that in FIG. 2. […] In monkeys with severe vasoconstriction and low heart rates (<90 beats/minute), Ca^2+ antagonists effected increases to 90 to 200 beats/minute due to reversal of atrioventricular […] conduction blocks (evident in the recovery of heart rate shown in Table 2).

As for `NCCc1c[nH]c2ccc(O)cc12` [Serotonin, serotonin], the “coronary vasospasm with mechanical injury (5F catheter stretch)” value in the test with coronary arteries [1] is listed as “caused coronary vasospasm at multiple sites; also recorded: Vasospasm was stimulated”. Further, in the test on coronary arteries [2] (Protocol 1, number of animals with vasospasm / number of animals), the Spasms/N is recorded as 0/8. Moreover, the “ED50 (-log mol/liter)” value with coronary arteries [2] (Protocol 1, syringe concentration of the named vasoconstrictor causing 50% reduction of diameter from control, combined stimuli with 100 μmol/liter serotonin) was 2.5 -log mol/liter. The “vasoactivity / constriction of arteries on IC injection of single agent” value in the test on coronary arteries [2] (serotonin 67 nmol/liter to 667 μmol/liter, U46619 6.7 to 2,000 nmol/liter) is listed as “vasoactive in all animals”. Further, the “coronary vasospasm on IC injection (no mechanical injury)” value in the test on coronary arteries [2] (serotonin 6.7 or 200 μmol/liter alone, U46619 6.7 to 2,000 nmol/liter alone, AII up to 200 nmol/liter, combination 6.7 μmol/liter serotonin and 67 nmol/liter U46619, triple combination with ET1) is given as “vasospasm could not be found”. In the test with coronary arteries [3], the EC50 was 0.000158 mol/L.

As for `COCC(=O)O[C@]1(CCN(C)CCCc2nc3ccccc3[nH]2)CCc2cc(F)ccc2[C@@H]1C(C)C` [mibefradil], in the test on coronary arteries [4] (IC injection, nitrendipine 1 to 10 μmol/liter, mibefradil 0.1 to 10 μmol/liter, not allowing for dilution), the “relief of coronary vasospasm” value is on record as “immediately effective in relieving vasospasm”. In addition, in the test with coronary arteries [4] (Mibefradil IC 0.1 to 10 μmol/liter, from diastolic levels as low as 10 to 20 mm Hg), the “blood pressures returned to normal ranges (minimums, systolic/diastolic)” value is on record as 100/60. Further, the “blood pressure after IC mibefradil” value with coronary arteries [4] (one MPA monkey of Example 2, nadir 38/20 mm Hg, after 15 minutes vasospasm) is reported as 124/84.
